From patent US11066386B2, “CGRP receptor antagonists” (Eli Lilly and Company, priority 2017, dated 2021) come the findings set out here.

As usually defined, the fraction unbound is free concentration divided by total concentration. A word on the Kb: it is the equilibrium dissociation constant of an antagonist, usually derived from a functional assay.

The nature of series [1]: Rat plasma and brain homogenate protein binding by equilibrium dialysis. The format is in vitro ADME. On the procedure: Determination of plasma and brain protein binding: Rat plasma and brain homogenate protein in vitro binding is determined using equilibrium dialysis, as described elsewhere [Zamek-Gliszczynski et al., J Pharm Sci, 101:1932-1940, 2012]. The results are reported as fraction unbound in plasma (fu,plasma) and brain (fu,brain), which are then utilized to calculate Kp,uu,brain, as described in Table 2. Rat fu,plasma and fu,brain of the compound of Example 1 are determined to be 0.277 and 0.126, respectively.
In general terms: In equilibrium dialysis only unbound substance equilibrates across the membrane.

Series [2] has as its target T1, ABCB1, Human P-Glycoprotein (Pgp) (Homo sapiens, UniProt P08183).
T1 construct: host or cells: MDCKII cells
Description: In vitro determination of efflux by Pgp, bi-directional transport across MDCKII cells. The format is in vitro ADME. The settings on record: MDCKII cells expressing human ABCB1, 5 μM substrate, 60 min. As for the experimental part: In Vitro Determination of Efflux by ABCB1, Human P-Glycoprotein (Pgp)
Cell Culture: MDCKII cells stably expressing human wild-type ABCB1 (Pgp) are obtained from the Netherlands Cancer Institute (Amsterdam, The Netherlands). MDCK cells are maintained as described previously (Desai et al., Mol Pharm 10:1249-1261, 2013).
Bi-directional transport across MDCK cells: The assay is essentially conducted as described previously (Desai et al., Mol Pharm 10:1249-1261, 2013). Transport is measured in both directions across uninhibited and inhibited cell monolayers using a substrate concentration of 5 μM diluted from a 10 mM DMSO stock solution (final DMSO concentration of 0.05%) and a single 60-min time interval. […] The apparent permeability coefficients (Papp) are estimated as the slope of the mass transported per 60 min relative to the total recovered mass. The basal-to-apical (B-A)/apical-to-basal (A-B) Papp ratios are calculated in the absence or presence of inhibitor in each cell line for net efflux ratio (NER).

Series [3] has as its target T2, hCGRP (human calcitonin gene-related peptide) receptor (Homo sapiens, UniProt O60894+Q16602).
T2 construct: Cultured SK-N-MC neuroblastoma cells that endogenously express the hCGRP receptor (ATCC); host or cells: SK-N-MC neuroblastoma cells
Description: Inhibition of cAMP production by CGRP receptor antagonists (HTRF) in SK-N-MC cells. Conditions: human CGRP 0.8 nM as agonist, mean ±SEM, n=16, read-out: Kb measured at human CGRP. Type of series: cell-based. An excerpt: Inhibition of cAMP Production by CGRP Receptor Antagonists
The hCGRP (human calcitonin gene-related peptide) receptor is functionally coupled to the Gas proteins. Stimulation of hCGRP results in an increased synthesis of intracellular cAMP and can be blocked by the addition of receptor antagonists. Receptor activity is thus a reflection of the amount of cAMP present within cells which can be detected using standard in vitro technology. […]
Data Analysis: The amount of intracellular cAMP is quantitated using HTRF technology (Cisbio) as per vendor instructions. […] The HTRF signal is immediately detected using an ENVISION® plate reader (Perkin-Elmer) to calculate the ratio of fluorescence at […]. […] Relative EC50 values are calculated from the top-bottom range of the concentration response curve using a four-parameter logistic curve fitting program (ACTIVITYBASE® v5.3.1.22 or GENEDATA SCREENER® v12.0.4), and Kb values are estimated as agonist-corrected IC50 values using the equation: Kb=(IC50)[1+([Agonist]/EC50)]. […]

Series [4] in a line: In vivo determination of unbound brain-to-plasma partition coefficient (Kp,uu,brain) in rats. Conditions: 10 mg/kg oral; for concentration at 0.5 h / concentration at 2 h: male, Sprague-Dawley, oral, 10 mg/kg. As for the experimental part: In Vivo Determination of Unbound Brain-to-Plasma Partition Coefficient (Kp,uu,brain) in Rats
Unbound brain-to-plasma partition coefficient (Kp,uu,brain) is one of the key pharmacokinetic parameter for evaluating a compound's ability to cross the blood-brain barrier (BBB) (Hammarlund-Udenaes, M.; Friden, M.; Syvanen, S.; Gupta, A. On the Rate and Extent of Drug Delivery to the Brain. Pharm. Res. 2008, 25 (8), 1737-1750).
Study populations: Animal studies are performed under protocols approved by the Covance Institutional Animal Care and Use Committee. Male Sprague-Dawley rats weighing 250-350 g are obtained from Harlan Sprague Dawley Inc. (Indianapolis, Ind.). Animals have access to food and water ad libitum before and during the study.
Dose administration: Animals each receive 10 mg/kg of the CGRP receptor antagonist compound of Example 1, administered orally in 10 ml/kg of hydroxyethylcellulose 1% w/v/polysorbate 80 0.25% v/v/Antifoam 1510-US 0.05% v/v/in purified water (probe sonicated).
Pharmacokinetic sampling: Three animals per time point are used. The blood (by cardiac puncture) and brain samples are collected at 0.5 and 2 h post dose. The blood samples are treated with K3-EDTA anticoagulant, and plasma is obtained by centrifugation at 1600 g for 10 minutes. The brain samples are weighed and homogenized, without perfusion. All samples are stored at −70° C. until analysis by LC-MS/MS to determine the concentration of the compound of Example 1 in plasma and brain at each time point.
Kp,uu,brain is calculated for each time point from the expression below where individual components are derived from a combination of in vitro and in vivo measurements carried out as described above:
[formula] where Ctotal,brain, Cu,brain, Ctotal,plasma and Cu,plasma are total and unbound brain and plasma concentrations, and fu,brain and fu,plasma are fractions unbound in brain and plasma, respectively.

Like-named read-outs stand apart in the source and are kept apart here.

T2 sequence (Q16602 23-461): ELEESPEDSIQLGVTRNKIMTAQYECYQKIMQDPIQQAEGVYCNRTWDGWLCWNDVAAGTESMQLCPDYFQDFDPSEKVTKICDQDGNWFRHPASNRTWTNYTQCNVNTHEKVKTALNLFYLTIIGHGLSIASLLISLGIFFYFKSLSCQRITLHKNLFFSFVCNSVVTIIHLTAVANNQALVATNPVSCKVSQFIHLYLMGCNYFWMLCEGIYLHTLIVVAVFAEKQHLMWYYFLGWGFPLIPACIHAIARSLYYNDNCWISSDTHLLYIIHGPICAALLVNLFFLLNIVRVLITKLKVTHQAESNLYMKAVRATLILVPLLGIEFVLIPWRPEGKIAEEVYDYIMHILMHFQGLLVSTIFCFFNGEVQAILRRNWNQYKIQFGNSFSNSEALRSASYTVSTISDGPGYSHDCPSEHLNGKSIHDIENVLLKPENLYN
T2 sequence (O60894 27-148): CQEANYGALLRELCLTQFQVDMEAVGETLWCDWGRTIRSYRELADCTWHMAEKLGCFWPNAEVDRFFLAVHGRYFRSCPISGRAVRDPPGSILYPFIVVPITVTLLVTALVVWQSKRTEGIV
T1 sequence (P08183 whole entry): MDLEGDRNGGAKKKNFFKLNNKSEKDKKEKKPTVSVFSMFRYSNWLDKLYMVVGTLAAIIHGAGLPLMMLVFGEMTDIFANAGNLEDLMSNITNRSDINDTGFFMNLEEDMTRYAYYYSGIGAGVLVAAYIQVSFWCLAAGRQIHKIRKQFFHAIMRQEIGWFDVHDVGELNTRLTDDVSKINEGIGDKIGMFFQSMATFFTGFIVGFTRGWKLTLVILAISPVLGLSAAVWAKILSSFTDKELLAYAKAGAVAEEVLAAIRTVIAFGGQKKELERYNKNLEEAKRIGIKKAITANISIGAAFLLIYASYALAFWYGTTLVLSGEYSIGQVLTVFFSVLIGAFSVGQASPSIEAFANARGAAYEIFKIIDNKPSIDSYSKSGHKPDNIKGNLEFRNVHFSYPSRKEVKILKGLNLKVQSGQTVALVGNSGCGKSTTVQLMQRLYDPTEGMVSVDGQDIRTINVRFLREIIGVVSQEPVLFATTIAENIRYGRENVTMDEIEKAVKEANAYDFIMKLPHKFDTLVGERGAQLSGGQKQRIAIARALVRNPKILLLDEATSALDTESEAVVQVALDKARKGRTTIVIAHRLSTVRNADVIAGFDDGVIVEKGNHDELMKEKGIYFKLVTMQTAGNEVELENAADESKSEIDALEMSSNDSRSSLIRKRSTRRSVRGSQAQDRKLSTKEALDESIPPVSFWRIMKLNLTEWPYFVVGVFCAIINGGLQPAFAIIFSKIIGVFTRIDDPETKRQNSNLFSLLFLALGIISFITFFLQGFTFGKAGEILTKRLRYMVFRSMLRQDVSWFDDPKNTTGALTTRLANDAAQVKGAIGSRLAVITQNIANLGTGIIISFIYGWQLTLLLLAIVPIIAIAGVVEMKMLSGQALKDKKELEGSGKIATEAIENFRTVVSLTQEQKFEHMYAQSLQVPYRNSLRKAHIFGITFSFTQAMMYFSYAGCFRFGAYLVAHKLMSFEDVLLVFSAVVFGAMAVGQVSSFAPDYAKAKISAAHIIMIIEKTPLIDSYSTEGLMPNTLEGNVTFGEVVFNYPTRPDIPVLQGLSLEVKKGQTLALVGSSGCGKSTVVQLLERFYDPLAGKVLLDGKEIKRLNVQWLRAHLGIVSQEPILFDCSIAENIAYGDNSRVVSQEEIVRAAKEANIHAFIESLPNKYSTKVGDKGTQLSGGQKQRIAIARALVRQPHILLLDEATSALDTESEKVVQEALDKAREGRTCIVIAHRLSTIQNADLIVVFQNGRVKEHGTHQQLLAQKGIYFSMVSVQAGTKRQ

Regarding `Cc1cc(OCCc2ccc([C@@H](C)[C@]3(C)CC(=O)NC3=O)cc2)cc(C)n1` [Example 1, (3S)-3-[(1R)-1-[4-[2-[(2,6-dimethyl-4-pyridyl)oxy]ethyl]phenyl]ethyl]-3-methyl-pyrrolidine-2,5-dione], the fraction unbound in brain (fu,brain) in series [1] (rat brain homogenate) was found to be 0.126. Moreover, the unbound share (fraction unbound) in series [1] (rat plasma, read-out: fraction unbound in plasma (fu,plasma)) came out at 0.277. Besides, in series [2], the “net efflux ratio (NER) for efflux by Pgp” value is listed as 4.1. In series [3], the Kb is 0.31 ± 0.21 nM. Also, the “Unbound brain conc. (Cu,brain)” value in series [4] (male Sprague-Dawley rats, 0.5 hr, using rat fu,brain 0.126, mean +/- SD) came out at 46 ± 9 nM; in series [4] (male Sprague-Dawley rats, 2.0 hr, using rat fu,brain 0.126, mean +/- SD) it was 51 ± 10 nM. The concentration at 0.5 h in series [4] (rat, brain, 0.5 hr, mean +/- SD, read-out: Total brain conc. (Ctotal,brain)) amounted to 365 ± 67 nM; in series [4] (rat, brain, 0.5 hr, using rat fu,brain 0.126, mean +/- SD, read-out: Unbound brain conc. (Cu,brain)), 46 ± 9 nM; in series [4] (rat, plasma, 0.5 hr, mean +/- SD, read-out: Total plasma conc. (Ctotal,plasma)) it was 497 ± 69 nM; in series [4] (rat, plasma, 0.5 hr, using rat fu,plasma 0.277, mean +/- SD, read-out: Unbound plasma conc. (Cu,plasma)), 138 ± 19 nM. Moreover, the concentration at 2 h stood at 405 ± 83 nM in series [4] (rat, brain, 2.0 hr, mean +/- SD, read-out: Total brain conc. (Ctotal,brain)); 51 ± 10 nM in series [4] (rat, brain, 2.0 hr, using rat fu,brain 0.126, mean +/- SD, read-out: Unbound brain conc. (Cu,brain)); 531 ± 129 nM in series [4] (rat, plasma, 2.0 hr, mean +/- SD, read-out: Total plasma conc. (Ctotal,plasma)); 147 ± 36 nM in series [4] (rat, plasma, 2.0 hr, using rat fu,plasma 0.277, mean +/- SD, read-out: Unbound plasma conc. (Cu,plasma)). The Kp uu at 0.5 h in series [4] (rat, brain/plasma, male Sprague-Dawley rats, 0.5 hr, mean +/- SD) is 0.34 ± 0.05. Also, the Kp uu at 2 h in series [4] (rat, brain/plasma, male Sprague-Dawley rats, 2.0 hr, mean +/- SD) stood at 0.35 ± 0.01.
